The text below walks through data of patent US20260138959A1, “QUINAZOLINE DERIVATIVE COMPOUND AND USE THEREOF” (VORONOI INC., priority 2021, published 2026).

The subject of one assay is Ba/F3-c-KIT(D816V). Kind of assay: Proliferation inhibitory activity on Ba/F3 cell (CellTiter-Glo, 72 hours), c-KIT(D816V). As to conditions: Mus musculus, BaF3, read-out: Ba/F3 (nM) c-KIT (D816V) (GI50 class). The format is cell-based. The method, boiled down: (§1)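 3×10^3 Ba/F3 cells/well; cpd 0.00005-10 μM final, 3-fold × 12 pts, DMSO ctrl; 37 °C CO2, 72 h. CellTiter-Glo added, ~10 min RT, luminescence read. GI50 (nM) vs vehicle.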

A further assay deals with c-KIT V560G/D816V. The experiment in a line: Proliferation inhibitory activity on Ba/F3 cell (CellTiter-Glo, 72 hours), c-KIT V560G/D816V. As to conditions: Mus musculus, BaF3, c-KIT V560G/D816V cells, read-out: Cell (nM) c-KIT V560G/D816V (GI50 class). In kind it is cell-based. In short, it runs like this:
as §1

In another assay the test system is c-KIT D814Y. Kind of assay: Proliferation inhibitory activity on Ba/F3 cell (CellTiter-Glo, 72 hours), c-KIT D814Y. The format is cell-based. The note with it: Mus musculus, BaF3, c-KIT D814Y cells, read-out: Cell (nM) c-KIT D814Y (GI50 class). Here is the method: (§2) Ba/F3-TEL-PDGFRα(WT), Ba/F3-TEL-PDGFβ(WT), Ba/F3-c-KIT(D816V) (Kyinno, #KC-0138), c-KIT V560G/D816V, c-KIT D814Y were seeded at 3×10^3/100 μl/well in a clear bottom white 96-well plate. A culture solution containing compounds of 12 concentrations (0.00001-2 mM) serially diluted in 3 folds and the DMSO control group was added at 0.5 μl/well each to a final concentration of 0.00005-10 μM, and then incubated in a CO2 incubator at 37° C. for 72 hours. After 72 hours, the plate treated with the compound was taken out, CellTiter-Glo® Assay (Promega) solution was treated with 100 μl/well, followed by mixing well. After mixing well for about 10 minutes at room temperature, […] was measured using a microplate reader. The data were presented as percentages in proportion to treated cells based on the vehicle, GI50 (nM) values were calculated using GraphPad Prism 8.3.0 (GraphPad software Inc., San Diego).
(§3) The inhibitory activities of Ba/F3 expressing PDGFR-α, PDGFR-β, c-KIT(D816V), c-KIT V560G/D816V, and c-KIT D814Y measured as described above were measured and shown in Table 7 below (A: GI50≤200 nM; B: 200 nM<GI50≤500 nM; C: GI50>500 nM).
(In general: In ATP-based viability assays light output follows the ATP content of the culture.)

In another assay the target is T1, human PDGFR-α(wt) (Homo sapiens, UniProt P16234).
T1 construct: purchased Signalchem P12-18G
Kind of assay: Enzyme inhibitory activity, ADP-Glo kinase assay, PDGFR-α(wt). In kind it is biochemical. As to conditions: read-out: PDGFR-α (IC50 class). Here is the method: In order to evaluate the inhibitory activity of the compounds synthesized according to the above examples on PDGFR-α(wt), PDGFR-β(wt), c-KIT(wt), and c-KIT(D816V) kinases, the following method was performed. The compounds of examples were reacted with purified human PDGFR-α(wt) (Signalchem #P12-18G) enzyme, human PDGFR-β(wt) (Signalchem #P13-11G) enzyme, human c-KIT(wt) (Signalchem #K06-11BG) enzyme, human c-KIT(D816V) (Signalchem #C06-12LG) enzyme, and the enzyme inhibitory abilities were evaluated by the following method.
The reaction buffer was used as a composition of 40 mM Tris-HCl pH7.4, 20 mM MgCl2, 0.5 mg/ml BSA, 50 μM DTT, and the reactions of all the tests were carried out on the reaction buffer. The compound was diluted in 12 steps using a serial dilution method from a 10 mM DMSO stock, and the enzyme activity was measured at a final compound concentration of 10˜0.00005645 μM. During the test, the enzyme activity was confirmed using in vitro ADP-Glo™ kinase assay (Promega) after reacting with the proper concentration of human PDGFR-α(wt) enzyme, human PDGFR-β(wt), human c-KIT(wt) enzyme, and human c-KIT(D816V) enzyme with purified ATP and enzyme substrate at 25° C. for 1˜2 hours. At a ratio of 2:2:1, an enzyme-active reaction solution, an ADP-Glo reaction solution, and an enzyme-active detection solution were reacted to measure the inhibition of the enzyme's activity with luminoscence. Based on the […] of the enzyme activity of the solvent control that was not treated with the compound, the degree of enzyme activity inhibition was calculated according to the treatment concentration of each compound, and the concentration of each compound that inhibits 50% of enzyme activity was determined as IC50 (nM) value and the value was obtained by using GraphPad Prism 8.3.0 (GraphPad software Inc., San Diego) software. (A: IC50≤50 nM; B: 50 nM<IC50≤100 nM; C: 100 nM<IC50≤500 nM; D: IC50>500 nM).
(In general: ADP-Glo first removes unused ATP, then detects ADP through luciferase.)

In the next assay the target is T2, human PDGFR-β(wt) (Homo sapiens, UniProt P09619).
T2 construct: purchased Signalchem P13-11G
Kind of assay: Enzyme inhibitory activity, ADP-Glo kinase assay, PDGFR-β(wt). In kind it is biochemical. The note with it: read-out: PDGFR-β (IC50 class). In short, it runs like this:
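Purified human kinases incubated with ATP and substrate 1–2 h at 25 °C in 40 mM Tris-HCl pH 7.4, 20 mM MgCl2, BSA, DTT, compound over 12 concentrations (10–0.00005645 μM final). ADP formed quantified by ADP-Glo luminescence; IC50 from inhibition versus DMSO control, reported in bins A–D.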

The next assay concerns Ba/F3-TEL-PDGFRα(WT). Kind of assay: Proliferation inhibitory activity on Ba/F3 cell (CellTiter-Glo, 72 hours), PDGFR-α. The format is cell-based. The note with it: Mus musculus, BaF3, read-out: Ba/F3 (nM) Tel-PDGFRα (GI50 class). How it is done:
as §2, §3

The subject of the next assay is Ba/F3-TEL-PDGFβ(WT). The experiment in a line: Proliferation inhibitory activity on Ba/F3 cell (CellTiter-Glo, 72 hours), PDGFR-β. As to conditions: Mus musculus, BaF3, read-out: Ba/F3 (nM) Tel-PDGFRβ (GI50 class). The format is cell-based. In short, it runs like this: as §1
The next assay relates to various kinases. Kind of assay: Inhibitory activity against various kinases, DiscoverX scanMAX Kinase panel, % control at 1 μM. The format is binding. Here is the method:
The activities of the compounds according to the present disclosure on various enzymes were evaluated. Specifically, it was commissioned DiscoverX to measure enzyme selectivity for the compounds of Examples 3, 9, and 83 above, and the experiment was conducted using a panel for scanMAX™ Kinase analysis. Herein, a solution prepared by dissolving in DMSO at a concentration of 1 μM was used as the drug treated with the enzyme, and the control percentage (% control) was determined by the method of Equation 1 below, and the results are shown in Table 8 below.
Herein, when the calculated percentage value for each enzyme was less than 35%, it was determined to have inhibitory activity for the enzyme. Accordingly, among the series of enzymes tested, the enzymes showing the inhibitory activities of the compounds of the present disclosure are summarized and shown in Table 8 below along with the control percentages thereof. (©): less than 10%; ◯: 10% or more to less than 35%).

T2 sequence (P09619 33-1106): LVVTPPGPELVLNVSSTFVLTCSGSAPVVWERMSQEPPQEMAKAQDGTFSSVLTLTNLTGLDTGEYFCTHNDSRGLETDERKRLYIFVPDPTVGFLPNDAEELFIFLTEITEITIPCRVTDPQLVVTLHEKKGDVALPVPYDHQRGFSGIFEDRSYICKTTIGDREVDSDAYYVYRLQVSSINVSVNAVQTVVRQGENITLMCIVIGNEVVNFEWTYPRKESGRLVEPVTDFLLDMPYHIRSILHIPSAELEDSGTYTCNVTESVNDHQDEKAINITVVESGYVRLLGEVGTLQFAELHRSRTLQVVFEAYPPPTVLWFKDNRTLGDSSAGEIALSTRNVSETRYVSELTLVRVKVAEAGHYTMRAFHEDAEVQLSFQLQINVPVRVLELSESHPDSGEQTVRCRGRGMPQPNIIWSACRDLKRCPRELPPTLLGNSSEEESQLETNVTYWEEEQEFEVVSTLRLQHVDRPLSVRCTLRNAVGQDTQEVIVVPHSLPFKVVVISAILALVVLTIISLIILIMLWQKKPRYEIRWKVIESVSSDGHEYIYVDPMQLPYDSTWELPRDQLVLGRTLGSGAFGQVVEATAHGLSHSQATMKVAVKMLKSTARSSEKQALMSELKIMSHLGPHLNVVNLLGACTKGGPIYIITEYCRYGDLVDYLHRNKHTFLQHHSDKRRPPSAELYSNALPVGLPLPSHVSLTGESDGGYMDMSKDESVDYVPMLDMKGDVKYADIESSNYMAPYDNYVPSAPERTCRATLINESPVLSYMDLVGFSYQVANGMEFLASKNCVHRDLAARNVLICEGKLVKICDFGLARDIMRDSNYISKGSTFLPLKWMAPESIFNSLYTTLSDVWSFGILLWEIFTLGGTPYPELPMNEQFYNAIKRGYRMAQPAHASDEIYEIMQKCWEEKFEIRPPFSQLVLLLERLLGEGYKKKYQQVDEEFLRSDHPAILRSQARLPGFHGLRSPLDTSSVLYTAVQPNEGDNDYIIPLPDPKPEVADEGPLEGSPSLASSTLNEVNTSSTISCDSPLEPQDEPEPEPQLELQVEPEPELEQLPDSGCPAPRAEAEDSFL
T1 sequence (P16234 24-1089): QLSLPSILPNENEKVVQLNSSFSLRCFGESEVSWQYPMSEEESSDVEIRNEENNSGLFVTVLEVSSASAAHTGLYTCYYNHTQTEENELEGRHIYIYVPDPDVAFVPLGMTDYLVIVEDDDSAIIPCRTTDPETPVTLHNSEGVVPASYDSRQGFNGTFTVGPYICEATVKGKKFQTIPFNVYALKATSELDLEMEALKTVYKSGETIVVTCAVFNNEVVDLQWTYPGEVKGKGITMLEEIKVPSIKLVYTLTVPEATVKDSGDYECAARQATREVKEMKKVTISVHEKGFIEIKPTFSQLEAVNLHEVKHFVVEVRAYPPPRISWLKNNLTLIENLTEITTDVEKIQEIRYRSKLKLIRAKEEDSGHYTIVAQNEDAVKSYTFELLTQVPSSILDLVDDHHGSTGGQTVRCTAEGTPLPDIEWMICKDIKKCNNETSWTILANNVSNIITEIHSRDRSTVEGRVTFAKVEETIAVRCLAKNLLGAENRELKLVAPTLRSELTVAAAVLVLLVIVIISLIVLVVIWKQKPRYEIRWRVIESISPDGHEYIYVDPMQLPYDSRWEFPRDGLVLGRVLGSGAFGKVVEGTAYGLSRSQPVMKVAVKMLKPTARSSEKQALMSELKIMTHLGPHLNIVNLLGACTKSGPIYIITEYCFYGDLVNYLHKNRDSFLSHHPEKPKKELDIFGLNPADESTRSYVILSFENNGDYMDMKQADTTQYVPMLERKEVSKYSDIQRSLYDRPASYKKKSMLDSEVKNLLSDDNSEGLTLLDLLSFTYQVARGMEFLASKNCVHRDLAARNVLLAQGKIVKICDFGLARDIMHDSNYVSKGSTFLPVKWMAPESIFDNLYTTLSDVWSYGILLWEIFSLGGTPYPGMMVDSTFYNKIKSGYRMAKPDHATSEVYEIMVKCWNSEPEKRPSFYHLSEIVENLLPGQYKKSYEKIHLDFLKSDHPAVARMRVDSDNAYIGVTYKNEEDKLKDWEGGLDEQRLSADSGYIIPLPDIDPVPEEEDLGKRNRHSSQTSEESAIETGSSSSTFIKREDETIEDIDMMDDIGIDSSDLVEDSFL

Take `CCN1CCCC(COc2cc3c(-c4ccc(NC(=O)Cc5ccc(C(F)(F)F)cc5)cc4)ncnc3cc2OC)C1` (stereo not drawn) [Example 134, N-(4-(6-((1-ethylpiperidin-3-yl)methoxy)-7-methoxyquinazolin-4-yl)phenyl)-2-(4-(trifluoromethyl)phenyl)acetamide]: the GI50 in the assay on Ba/F3-c-KIT(D816V), in the assay with c-KIT V560G/D816V and with c-KIT D814Y was at most 200 nM each time.
Turning to `CCN1CC(Oc2cc3c(-c4ccc(NC(=O)Cc5ccc(C(F)(F)F)cc5)cc4)ncnc3cc2OC)C1` [Example 144, N-(4-(6-((1-ethylazetidin-3-yl)oxy)-7-methoxyquinazolin-4-yl)phenyl)-2-(4-(trifluoromethyl)phenyl)acetamide], the GI50 with Ba/F3-c-KIT(D816V) was at most 200 nM; in the assay with c-KIT V560G/D816V, 200 to 500 nM; in the assay with c-KIT D814Y, at most 200 nM.
Consider `COc1cc2ncnc(-c3ccc(NC(=O)Cc4ccc(C(F)(F)F)cc4)cc3)c2cc1OCCCN1CCN(C)CC1` [Example 126, N-(4-(7-methoxy-6-(3-(4-methylpiperazin-1-yl)propoxy)quinazolin-4-yl)phenyl)-2-(4-(trifluoromethyl)phenyl)acetamide], for which the GI50 in the assay on Ba/F3-c-KIT(D816V), in the assay on c-KIT V560G/D816V and in the assay on c-KIT D814Y was at most 200 nM in each case.
For `COc1cc2ncnc(-c3ccc(NC(=O)Cc4ccc(C(F)(F)F)cc4)cc3)c2cc1OC1CNC1` [Example 138, N-(4-(6-(azetidin-3-yloxy)-7-methoxyquinazolin-4-yl)phenyl)-2-(4-(trifluoromethyl)phenyl)acetamide], the GI50 is at most 200 nM in the assay with Ba/F3-c-KIT(D816V), 200 to 500 nM with c-KIT V560G/D816V and at most 200 nM in the assay on c-KIT D814Y.
A word on the IC50: it is the concentration needed to halve the response being measured. For the compound `COc1cc2c(-c3ccc(NC(=O)Cc4ccc(C#N)cc4)cc3)ncnc2cc1OCCCN1CCN(C)CC1` [Example 83, 2-(4-cyanophenyl)-N-(4-(6-methoxy-7-(3-(4-methylpiperazin-1-yl)propoxy)quinazolin-4-yl)phenyl)acetamide], the IC50 at human PDGFR-α(wt) and at human PDGFR-β(wt) was at most 50 nM in each case. Further, the GI50 with Ba/F3-TEL-PDGFRα(WT), in the assay on Ba/F3-TEL-PDGFβ(WT), in the assay with Ba/F3-c-KIT(D816V) and in the assay on c-KIT V560G/D816V was at most 200 nM in each case. In addition, the “control percentage (% control), KIT” value with various kinases (KIT) is on record as “⊚”. Further, the “control percentage (% control), KIT (A829P)” value with various kinases (KIT (A829P)) is “⊚”. Also, in the assay with various kinases (KIT (D816H)), the “control percentage (% control), KIT (D816H)” value is on record as “⊚”. Moreover, the “control percentage (% control), KIT (D816V)” value in the assay with various kinases (KIT (D816V)) is “⊚”. For the same compound, the “control percentage (% control), KIT (L576P)” value with various kinases (KIT (L576P)) is “⊚”. Further, the “control percentage (% control), KIT (V559D)” value with various kinases (KIT (V559D)) is “⊚”. In addition, the “control percentage (% control), KIT (V559D, T670I)” value in the assay on various kinases (KIT (V559D, T670I)) is “◯ (◯: 10% or more to less than 35%)”. The “control percentage (% control), KIT (V559D, V654A)” value in the assay with various kinases (KIT (V559D, V654A)) is on record as “◯ (◯: 10% or more to less than 35%)”. For the same compound, the “control percentage (% control), PDGFRA” value in the assay with various kinases (PDGFRA) was “⊚”. In addition, the “control percentage (% control), PDGFRB” value in the assay with various kinases (PDGFRB) was “⊚”.
With `COc1cc2c(-c3ccc(NC(=O)Cc4ccc(C(F)(F)F)cc4)cc3)ncnc2cc1OCCCN1C[C@H]2C[C@@H]1CN2C` [Example 31, N-(4-(6-methoxy-7-(3-((1R,4R)-5-methyl-2,5-diazabicyclo[2.2.1]heptane-2-yl)propoxy)quinazolin-4-yl)phenyl)-2-(4-(trifluoromethyl)phenyl)acetamide], the IC50 at human PDGFR-β(wt) is at most 50 nM. Moreover, the GI50 in the assay on Ba/F3-c-KIT(D816V), with c-KIT V560G/D816V and with c-KIT D814Y was at most 200 nM each time.
As for `CCN1CC[C@@H](COc2cc3ncnc(-c4ccc(NC(=O)Cc5ccc(C(F)(F)F)cc5)cc4)c3cc2OC)C1` [Example 40, (R)-N-(4-(7-((1-ethylpyrrolidin-3-yl)methoxy)-6-methoxyquinazolin-4-yl)phenyl)-2-(4-(trifluoromethyl)phenyl)acetamide], on human PDGFR-β(wt), the concentration for half-maximal inhibition (IC50) is at most 50 nM. The GI50 with Ba/F3-c-KIT(D816V), in the assay on c-KIT V560G/D816V and in the assay on c-KIT D814Y was at most 200 nM each time.
On to `CCN1CCC(Oc2cc3c(-c4ccc(NC(=O)Cc5ccc(C(F)(F)F)cc5)cc4)ncnc3cc2OC)C1` (stereo not drawn) [Example 145, N-(4-(6-((1-ethylpyrrolidin-3-yl)oxy)-7-methoxyquinazolin-4-yl)phenyl)-2-(4-(trifluoromethyl)phenyl)acetamide], for which the GI50 in the assay on Ba/F3-c-KIT(D816V) was at most 200 nM; in the assay with c-KIT V560G/D816V, 200 to 500 nM; in the assay with c-KIT D814Y it was at most 200 nM.
With `COc1cc2c(-c3ccc(NC(=O)Cc4ccc(C(F)(F)F)cc4)cc3)ncnc2cc1OCCCN1CC(N(C)C)C1` [Example 22, N-(4-(7-(3-(3-(dimethylamino)azetidine-1-yl)propoxy)-6-methoxyquinazolin-4-yl)phenyl)-2-(4-(trifluoromethyl)phenyl)acetamide], the GI50 in the assay on Ba/F3-c-KIT(D816V), in the assay on c-KIT V560G/D816V and in the assay on c-KIT D814Y was at most 200 nM throughout.
Turning to `COc1cc2ncnc(-c3ccc(NC(=O)Cc4ccc(C(F)(F)F)cc4)cc3)c2cc1OCC1CCCNC1` (stereo not drawn) [Example 133, N-(4-(7-methoxy-6-(piperidin-3-ylmethoxy)quinazolin-4-yl)phenyl)-2-(4-(trifluoromethyl)phenyl)acetamide], the GI50 with Ba/F3-c-KIT(D816V) was at most 200 nM; with c-KIT V560G/D816V, 200 to 500 nM; in the assay with c-KIT D814Y it was over 500 nM.
As to `COc1cc2ncnc(-c3ccc(NC(=O)Cc4ccc(C(F)(F)F)cc4)cc3)c2cc1O[C@@H]1CCOC1` [Example 125, (R)-N-(4-(7-methoxy-6-((tetrahydrofuran-3-yl)oxy)quinazolin-4-yl)phenyl)-2-(4-(trifluoromethyl)phenyl)acetamide], the GI50 in the assay on Ba/F3-c-KIT(D816V) was at most 200 nM; in the assay on c-KIT V560G/D816V, over 500 nM; in the assay on c-KIT D814Y, over 500 nM.
